Patent US20220153734A1, “Pyrazolopyridine Compounds For IRE1 Inhibition” (Optikira, LLC, priority 2019, published 2022)

What was measured:
[1] = target: T1, IRE1α (Homo sapiens, UniProt O75460); experiment: Biochemical assay: inhibition of RNase activity of IRE1α; settings: enzyme 0.325 nM, substrate 100 nM, 20 minutes
T1 construct: purchased Signal Chem E31-11G
Outline: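 Recombinant IRE1α (0.325 nM final) pre-incubated 30 min at room temperature with compounds (10-point ½-log series, duplicate, 4% DMSO final). Then 100 nM fluorophore/quencher-labelled RNA substrate added in 50 mM Tris, 0.5 mM MgCl2, 10 mM KCl, 2 mM DTT. Urea stop after 20 min; fluorescence read; IC50 from sigmoidal fit.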

[2] = tested on: ARPE-19 cells stably expressing XBP1 (a.a. 1-376); experiment: Cellular XBP1 splicing assay (NanoLuc luciferase, thapsigargin); type: cell-based; settings: Homo sapiens, ARPE-19, 4 h, thapsigargin 150 nM
Outline: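 ARPE-19 cells carrying an XBP1(1-376)-NanoLuc splicing reporter were pretreated with compound (10-point ½-log series, 0.117% DMSO) for 30 min, then stressed with 150 nM thapsigargin for 4 h at 37° C. Luminescence was read, and IC50 values came from sigmoidal fits of percent inhibition of control.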

T1 sequence (O75460 468-977 limits assumed): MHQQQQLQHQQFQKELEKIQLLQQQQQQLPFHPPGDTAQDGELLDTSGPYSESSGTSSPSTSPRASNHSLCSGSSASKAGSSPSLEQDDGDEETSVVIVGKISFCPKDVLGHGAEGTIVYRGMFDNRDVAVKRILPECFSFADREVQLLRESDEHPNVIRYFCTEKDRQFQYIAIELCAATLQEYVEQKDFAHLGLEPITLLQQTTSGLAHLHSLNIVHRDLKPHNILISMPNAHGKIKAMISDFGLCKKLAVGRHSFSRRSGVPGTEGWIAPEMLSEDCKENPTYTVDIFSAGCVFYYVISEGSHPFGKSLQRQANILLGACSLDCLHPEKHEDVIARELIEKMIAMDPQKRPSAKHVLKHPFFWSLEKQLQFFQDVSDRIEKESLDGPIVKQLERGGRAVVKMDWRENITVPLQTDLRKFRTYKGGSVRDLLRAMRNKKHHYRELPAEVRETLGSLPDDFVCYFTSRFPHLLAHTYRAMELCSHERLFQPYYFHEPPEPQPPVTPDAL

| Structure (SMILES) | IC50 [1] [nM] | IC50 [2] [nM] |
| --- | --- | --- |
| COCCN[C@H]1CC[C@H](c2cnc(N)c3c(-c4cc(F)c(NS(=O)(=O)Cc5ccc(F)cc5)cc4F)nn(C(C)C)c32)CC1 [Compound A17, N-(4-(4-amino-1-isopropyl-7-((1r,4r)-4-((2-methoxyethyl)amino)cyclohexyl)-1H-pyrazolo[4,3-c]pyridin-3-yl)-2,5-difluorophenyl)-1-(4-fluorophenyl)methanesulfonamide] | 0.9 | 12 |
| COCCN[C@H]1CC[C@H](c2cnc(N)c3c(-c4ccc(NS(=O)(=O)c5ccccc5F)cc4F)nn(C(C)C)c32)CC1 [Compound A18] | 12 | 37 |
| COCCN[C@H]1CC[C@H](c2cnc(N)c3c(-c4cc(F)c(NS(=O)(=O)c5ccccc5Cl)cc4F)nn(C(C)C)c32)CC1 [Compound A19, N-(4-(4-amino-1-isopropyl-7-((1r,4r)-4-((2-methoxyethyl)amino)cyclohexyl)-1H-pyrazolo[4,3-c]pyridin-3-yl)-2,5-difluorophenyl)-2-chlorobenzenesulfonamide] | 6.1 | 4 |
| COCCN[C@H]1CC[C@H](c2cnc(N)c3c(-c4cc(F)c(NS(=O)(=O)Cc5ccccc5Cl)cc4F)nn(C(C)C)c32)CC1 [Compound A20, N-(4-(4-amino-1-isopropyl-7-((1r,4r)-4-((2-methoxyethyl)amino)cyclohexyl)-1H-pyrazolo[4,3-c]pyridin-3-yl)-2,5-difluorophenyl)-1-(2-chlorophenyl)methanesulfonamide] | 1.2 | 13 |
| COCCN[C@H]1CC[C@H](c2cnc(N)c3c(-c4cc(F)c(NS(=O)(=O)c5cc(C#N)ccc5F)cc4F)nn(C(C)C)c32)CC1 [Compound A21, N-(4-(4-amino-1-isopropyl-7-((1r,4r)-4-((2-methoxyethyl)amino)cyclohexyl)-1H-pyrazolo[4,3-c]pyridin-3-yl)-2,5-difluorophenyl)-5-cyano-2-fluorobenzenesulfonamide] | 4.7 | 3800 |
| CC(C)n1nc(-c2cc(F)c(NS(=O)(=O)Cc3ccccc3F)cc2F)c2c(N)ncc([C@H]3CC[C@H](N(C)C)CC3)c21 [Compound A22, N-(4-(4-amino-7-((1r,4r)-4-(dimethylamino)cyclohexyl)-1-isopropyl-1H-pyrazolo[4,3-c]pyridin-3-yl)-2,5-difluorophenyl)-1-(2-fluorophenyl)methanesulfonamide] | 1.8 | 15 |
| COCCN[C@H]1CC[C@H](c2cnc(N)c3c(-c4cc(F)c(NS(=O)(=O)c5c(F)cccc5F)cc4F)nn(C(C)C)c32)CC1 [Compound A23, N-(4-(4-amino-1-isopropyl-7-((1r,4r)-4-((2-methoxyethyl)amino)cyclohexyl)-1H-pyrazolo[4,3-c]pyridin-3-yl)-2,5-difluorophenyl)-2,6-difluorobenzenesulfonamide] | 9.7 | 160 |
| COCCN[C@H]1CC[C@H](c2cnc(N)c3c(-c4cc(F)c(NS(=O)(=O)c5ccc(F)cc5F)cc4F)nn(C(C)C)c32)CC1 [Compound A24, N-(4-(4-amino-1-isopropyl-7-((1r,4r)-4-((2-methoxyethyl)amino)cyclohexyl)-1H-pyrazolo[4,3-c]pyridin-3-yl)-2,5-difluorophenyl)-2,4-difluorobenzenesulfonamide] | 5.4 | 82 |
| COCCN[C@H]1CC[C@H](c2cnc(N)c3c(-c4cc(F)c(NS(=O)(=O)c5cccc(F)c5F)cc4F)nn(C(C)C)c32)CC1 [Compound A25, N-(4-(4-amino-1-isopropyl-7-((1r,4r)-4-((2-methoxyethyl)amino)cyclohexyl)-1H-pyrazolo[4,3-c]pyridin-3-yl)-2,5-difluorophenyl)-2,3-difluorobenzenesulfonamide] | 9 | 25 |
| COCCN[C@H]1CC[C@H](c2cnc(N)c3c(-c4cc(F)c(NS(=O)(=O)Cc5ccccc5F)cc4F)nn(C(C)C)c32)CC1 [Compound A26, N-(4-(4-amino-1-isopropyl-7-((1r,4r)-4-((2-methoxyethyl)amino)cyclohexyl)-1H-pyrazolo[4,3-c]pyridin-3-yl)-2,5-difluorophenyl)-1-(2-fluorophenyl)methanesulfonamide] | 1.5 | 13 |
| COCCN(CCOC)[C@H]1CC[C@H](c2cnc(N)c3c(-c4cc(F)c(NS(=O)(=O)c5cc(OC)ccc5F)cc4F)nn(C(C)C)c32)CC1 [Compound A27, N-(4-(4-amino-7-((1r,4r)-4-(bis(2-methoxyethyl)amino)cyclohexyl)-1-isopropyl-1H-pyrazolo[4,3-c]pyridin-3-yl)-2,5-difluorophenyl)-2-fluoro-5-methoxybenzenesulfonamide] | 13 | 13 |
| COCCN[C@H]1CC[C@H](c2cnc(N)c3c(-c4cc(F)c(NS(=O)(=O)c5cc(OC)ccc5F)cc4F)nn(C(C)C)c32)CC1 [Compound A28] | 2.9 | 6.9 |
| COCCN(CCOC)[C@H]1CC[C@H](c2cnc(N)c3c(-c4cc(F)c(NS(=O)(=O)c5cccc(C(F)(F)F)c5)cc4F)nn(C(C)C)c32)CC1 [Compound A29, N-(4-(4-amino-7-((1r,4r)-4-(bis(2-methoxyethyl)amino)cyclohexyl)-1-isopropyl-1H-pyrazolo[4,3-c]pyridin-3-yl)-2,5-difluorophenyl)-3-(trifluoromethyl)benzenesulfonamide] | 32 | 500 |
| COCCN[C@H]1CC[C@H](c2cnc(N)c3c(-c4cc(F)c(NS(=O)(=O)c5cccc(C(F)(F)F)c5)cc4F)nn(C(C)C)c32)CC1 [Compound A30, N-(4-(4-amino-1-isopropyl-7-((1r,4r)-4-((2-methoxyethyl)amino)cyclohexyl)-1H-pyrazolo[4,3-c]pyridin-3-yl)-2,5-difluorophenyl)-3-(trifluoromethyl)benzenesulfonamide] | 3.8 | 93 |
| COCCN[C@H]1CC[C@H](c2cnc(N)c3c(-c4cc(F)c(NS(=O)(=O)c5cc(F)ccc5F)cc4F)nn(C(C)C)c32)CC1 [Compound A31, N-(4-(4-amino-1-isopropyl-7-((1r,4r)-4-((2-methoxyethyl)amino)cyclohexyl)-1H-pyrazolo[4,3-c]pyridin-3-yl)-2,5-difluorophenyl)-2,5-difluorobenzenesulfonamide] | 8.6 | 39 |
| COCCN[C@H]1CC[C@H](c2cnc(N)c3c(-c4cc(F)c(NS(=O)(=O)c5ccc(F)cc5)cc4F)nn(C(C)C)c32)CC1 [Compound A32, N-(4-(4-amino-1-isopropyl-7-((1r,4r)-4-((2-methoxyethyl)amino)cyclohexyl)-1H-pyrazolo[4,3-c]pyridin-3-yl)-2,5-difluorophenyl)-4-fluorobenzenesulfonamide] | 17 | 110 |
| COCCN(CCOC)[C@H]1CC[C@H](c2cnc(N)c3c(-c4cc(F)c(NS(=O)(=O)c5ccccc5F)cc4F)nn(C(C)C)c32)CC1 [Compound A35, N-(4-(4-amino-7-((1r,4r)-4-(bis(2-methoxyethyl)amino)cyclohexyl)-1-isopropyl-1H-pyrazolo[4,3-c]pyridin-3-yl)-2,5-difluorophenyl)-2-fluorobenzenesulfonamide] | 60 | 55 |
| COCCN(C)[C@H]1CC[C@H](c2cnc(N)c3c(-c4cc(F)c(NS(=O)(=O)c5ccccc5F)cc4F)nn(C(C)C)c32)CC1 [Compound A36, N-(4-(4-amino-1-isopropyl-7-((1r,4r)-4-((2-methoxyethyl)(methyl)amino)cyclohexyl)-1H-pyrazolo[4,3-c]pyridin-3-yl)-2,5-difluorophenyl)-2-fluorobenzenesulfonamide] | 13 | 18 |
| COCCN[C@H]1CC[C@H](c2cnc(N)c3c(-c4cc(F)c(NS(=O)(=O)c5ccccc5F)cc4F)nn(C(C)C)c32)CC1 [Compound A37, N-(4-(4-amino-1-isopropyl-7-((1r,4r)-4-((2-methoxyethyl)amino)cyclohexyl)-1H-pyrazolo[4,3-c]pyridin-3-yl)-2,5-difluorophenyl)-2-fluorobenzenesulfonamide] | 12 | 20 |
| CC(C)n1nc(-c2cc(F)c(NS(=O)(=O)c3ccccc3F)cc2F)c2c(N)ncc([C@H]3CC[C@H](N(C)C4COC4)CC3)c21 [Compound A38] | 12 | 13 |
| CC(C)n1nc(-c2ccc(NS(=O)(=O)Cc3ccccc3Cl)c(F)c2)c2c(N)ncc([C@H]3CC[C@H](NC4COC4)CC3)c21 [Compound A39, N-(4-(4-amino-1-isopropyl-7-((1r,4r)-4-(oxetan-3-ylamino)cyclohexyl)-1H-pyrazolo[4,3-c]pyridin-3-yl)-2-fluorophenyl)-1-(2-chlorophenyl)methanesulfonamide] | 0.3 | 1.7 |
| CC(C)n1nc(-c2cc(F)c(NS(=O)(=O)c3ccccc3F)cc2F)c2c(N)ncc([C@H]3CC[C@H](N(C)C)CC3)c21 [Compound A40, N-(4-(4-amino-7-((1r,4r)-4-(dimethylamino)cyclohexyl)-1-isopropyl-1H-pyrazolo[4,3-c]pyridin-3-yl)-2,5-difluorophenyl)-2-fluorobenzenesulfonamide] | 5.6 | 27 |
| Nc1ncc([C@H]2CC[C@H](NC3COC3)CC2)c2c1c(-c1ccc(NS(=O)(=O)Cc3ccccc3F)c(F)c1)nn2C1CC1 [Compound A54, N-(4-(4-amino-1-cyclopropyl-7-((1r,4r)-4-(oxetan-3-ylamino)cyclohexyl)-1H-pyrazolo[4,3-c]pyridin-3-yl)-2-fluorophenyl)-1-(2-fluorophenyl)methanesulfonamide] | 0.9 | 9 |
